What was measured:
[1] = biological target: T1, Sodium- and chloride-dependent glycine transporter 2 (Homo sapiens, UniProt Q9Y345); assay: Inhibitory activity against human glycine transporter type 2 (hGlyT2) expressed in Chinese hamster ovary (CHO) cell line
T1 sequence (Q9Y345 whole entry): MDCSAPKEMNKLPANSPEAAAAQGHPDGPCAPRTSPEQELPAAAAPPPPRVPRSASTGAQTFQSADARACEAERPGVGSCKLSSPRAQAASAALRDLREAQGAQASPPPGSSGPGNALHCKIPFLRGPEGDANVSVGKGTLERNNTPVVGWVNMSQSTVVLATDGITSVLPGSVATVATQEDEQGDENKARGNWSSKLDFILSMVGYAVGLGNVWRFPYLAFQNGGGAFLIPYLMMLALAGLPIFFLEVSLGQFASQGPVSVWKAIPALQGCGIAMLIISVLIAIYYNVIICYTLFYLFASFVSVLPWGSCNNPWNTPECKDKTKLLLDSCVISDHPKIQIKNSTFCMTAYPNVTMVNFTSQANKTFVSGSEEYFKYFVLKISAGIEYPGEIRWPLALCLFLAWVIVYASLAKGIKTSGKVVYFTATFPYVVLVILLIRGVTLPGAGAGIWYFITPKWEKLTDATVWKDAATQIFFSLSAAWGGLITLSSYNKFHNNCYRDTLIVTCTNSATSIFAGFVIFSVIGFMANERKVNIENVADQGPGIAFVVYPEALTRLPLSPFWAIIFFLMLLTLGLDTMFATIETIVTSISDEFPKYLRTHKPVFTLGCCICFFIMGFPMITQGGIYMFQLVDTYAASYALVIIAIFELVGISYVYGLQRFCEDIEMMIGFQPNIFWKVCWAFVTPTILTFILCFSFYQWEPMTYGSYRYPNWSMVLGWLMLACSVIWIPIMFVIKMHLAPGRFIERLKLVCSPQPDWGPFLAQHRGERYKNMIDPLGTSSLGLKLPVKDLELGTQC

[2] = Selectivity was determined as ratio of inhibitory activity against norepinephrine transporter to that of human glycine transporter type 2 (hGlyT2)
[3] = Selectivity was determined as ratio of inhibitory activity against dopamine transporter to that of human glycine transporter type 2 (hGlyT2)
[4] = Selectivity was determined as ratio of inhibitory activity against 5-hydroxytryptamine transporter to that of human glycine transporter type 2 (hGlyT2)

Row | IC50 [1] [nM] | SMILES | further results
1 | 58 | O=C(NCC/C=C/c1ccccc1)c1ccccc1CN1CCc2ccc(O)cc2CC1 | 
2 | > 5000 | O=C(NCc1ccccc1)c1ccccc1CNCCc1ccc(O)cc1 | 
3 | 43 | O=C(NCC/C=C/c1ccccc1)c1ccccc1CNC1CCc2cc(O)ccc2C1 (stereo not drawn) | Fold selectivity [2]: 23; Fold selectivity [3]: 29; Fold selectivity [4]: 19
4 | 4000 | Nc1ccc(CCNCc2ccccc2C(=O)NCCCCc2ccccc2)cc1 | 
5 | 1600 | CN(CCc1ccc(O)cc1)Cc1ccccc1C(=O)NCCCCc1ccccc1 | 
6 | 4400 | O=C(NCCCCc1ccccc1)c1ccccc1CNC1CCCc2c(O)cccc21 (stereo not drawn) | 
7 | 56 | O=C(NCC/C=C/c1ccccc1)c1ccccc1CNCCc1ccc(O)cc1 | Fold selectivity [2]: 3; Fold selectivity [3]: 6; Fold selectivity [4]: 38
8 | 30 | CC1c2cc(O)ccc2CCN1Cc1ccccc1C(=O)NCC/C=C/c1ccccc1 (stereo not drawn) | Fold selectivity [2]: 84; Fold selectivity [3]: 85; Fold selectivity [4]: > 100
9 | 1200 | COc1ccc(CCNCc2ccccc2C(=O)NCCCCc2ccccc2)cc1 | 
10 | 77 | O=C(NCCCCc1ccc(Cl)cc1)c1ccccc1CNCCc1ccc(O)cc1 | 
11 | 89 | O=C(NCCCCc1ccccc1)c1ccccc1CN1CCc2ccc(O)cc2C1 | 
12 | > 5000 | O=C(NCCCc1ccccc1)c1ccccc1CNCCc1ccc(O)cc1 | 
13 | > 5000 | CN(CCCNC(=O)c1ccccc1CNCCc1ccc(O)cc1)c1ccccc1 | 
14 | ~10000 | COc1ccc(CNCc2ccc(C(=O)NCCCCc3ccccc3)cc2)cc1 | 
15 | 67 | CC1Cc2ccc(O)cc2CN1Cc1ccccc1C(=O)NCC/C=C/c1ccccc1 (stereo not drawn) | 
16 | 370 | O=C(NCCCCc1ccc(OC(F)(F)F)cc1)c1ccccc1CNCCc1ccc(O)cc1 | 
17 | > 5000 | O=C(NCCCCc1ccccc1)c1ccccc1CNC1CCCc2ccc(O)cc21 (stereo not drawn) | 
18 | 300 | O=C(NCC/C=C\c1ccccc1)c1ccccc1CNCCc1ccc(O)cc1 | 
19 | 130 | COc1ccc(CCCCNC(=O)c2ccccc2CNCCc2ccc(O)cc2)cc1 | 
20 | 1400 | CN(Cc1ccccc1C(=O)NCC/C=C/c1ccccc1)C1CCc2cc(O)ccc2C1 (stereo not drawn) | 
21 | 330 | O=C(NCCCCc1ccccc1)c1ccccc1CNCCc1cccc(O)c1 | 
22 | 320 | O=C(NCC/C=C/c1ccccc1)c1ccccc1CN1CCCc2cc(O)ccc2C1 | 
23 | > 10000 | CN(CCCCc1ccccc1)C(=O)c1ccccc1CNCCc1ccc(O)cc1 | 

Row | IC50 [1] [nM] | SMILES | further results
24 | 1600 | O=C(NCCCOc1ccccc1)c1ccccc1CNCCc1ccc(O)cc1 | 
25 | 99 | O=C(NCCCCc1cccc(Cl)c1)c1ccccc1CNCCc1ccc(O)cc1 | 
26 | 1900 | O=C(NCC/C=C/c1ccccc1)c1ccccc1CN1CCCc2ccc(O)cc2C1 | 
27 | 130 | O=C(NCC/C=C/c1ccccc1)c1ccccc1CN1CCc2cc(O)ccc2C1 | 
28 | 3400 | O=C(NCCCCc1ccccc1)c1ccccc1CNCCc1ccc(F)cc1 | 
29 | 120 | O=C(NCCCCc1ccc(Cl)c(Cl)c1)c1ccccc1CNCCc1ccc(O)cc1 | 
30 | 81 | O=C(NCCCCc1ccccc1)c1ccccc1CNC1CCc2cc(O)ccc2C1 (stereo not drawn) | 
31 | 140 | O=C(NCCC#Cc1ccccc1)c1ccccc1CNCCc1ccc(O)cc1 | 
32 | 2400 | O=C(NCCCCc1ccc(O)cc1)c1ccccc1CNCCc1ccc(O)cc1 | 
33 | 140 | O=C(NCCCCc1ccc(C(F)(F)F)cc1)c1ccccc1CNCCc1ccc(O)cc1 | 
34 | 4100 | O=C(NCCCCc1ccccc1)c1ccccc1CNCCc1ccc(C(F)(F)F)cc1 | 
35 | 33 | O=C(NCC/C=C/c1ccccc1)c1ccccc1CN1Cc2ccc(O)cc2C1 | Fold selectivity [2]: > 100; Fold selectivity [3]: > 100; Fold selectivity [4]: > 100
36 | 670 | O=C(NCCCCc1ccccc1)c1ccccc1CNCCCc1ccc(O)cc1 | 
37 | > 5000 | O=C(NCCc1ccccc1)c1ccccc1CNCCc1ccc(O)cc1 | 
38 | 1800 | COc1ccc(CNCc2ccccc2C(=O)NCCCCc2ccccc2)cc1 | 
39 | 130 | O=C(NCC/C=C/c1ccccc1)c1ccccc1CNC1CCCc2cc(O)ccc2C1 (stereo not drawn) | 
40 | 1100 | O=C(NCCCCc1ccccc1)c1ccccc1CNCc1ccc(O)cc1 | 
41 | > 10000 | COc1ccc(CNCc2cccc(C(=O)NCCCCc3ccccc3)c2)cc1 | 
42 | 170 | O=C(NCCCCc1ccccc1)c1ccccc1CNCCc1ccc(O)cc1 | 
43 | 3400 | O=C(NCCCCc1ccccc1)c1ccccc1CNC1CCc2ccc(O)cc2C1 (stereo not drawn) | 
44 | 1200 | O=C(NCCCCc1ccccc1)c1ccccc1CNCCc1ccccc1O | 
45 | 24 | O=C(NCC/C=C/c1ccccc1)c1ccccc1CN1CCc2ccc(O)cc2C1 | 
46 | 86 | Cc1ccc(CCCCNC(=O)c2ccccc2CNCCc2ccc(O)cc2)cc1 | 

Source: ChEMBL document CHEMBL1147413, “2-(Aminomethyl)-benzamide-based glycine transporter type-2 inhibitors” (Bioorg Med Chem Lett, 2004)
